Source: PubChem BioAssay AID2060910 (Molecular Pharmacology Branch, DTP, NCI, 2025)
Values joined by “and” are separate entries in the source; they are usually repeats but may differ in a detail not shown here. Equal entries are not always repeated.

Test system: 242566-281-R-J2-PDC complex spheroid viability
Experiment: Anticancer human tumor 242566-281-R-J2-PDC patient-derived pancreatic carcinoma cell line growth inhibition [RAS]
Details: for viability, T/C: stronger effect = lower value
Procedure, shortened: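 Agents were tested in combination matrices in half-log decrements from a top concentration at or near clinical Cmax (10 microM if undetermined). Targets were multi-cell spheroids of tumour lines plus HUVEC and MSC stromal cells.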

[1] = curve of first compound, second compound 0.0316 µM
[2] = curve of first compound, second compound 0.1 µM
[3] = curve of first compound, second compound 0.316 µM
[4] = curve of first compound, second compound 1 µM
[5] = curve of first compound, second compound 3.16 µM
[6] = curve of first compound, second compound 10 µM
[7] = second compound 0.0316 µM, first compound 0.0316 µM
[8] = second compound 0.0316 µM, first compound 0.1 µM
[9] = second compound 0.0316 µM, first compound 0.316 µM
[10] = second compound 0.0316 µM, first compound 1 µM
[11] = second compound 0.0316 µM, first compound 3.16 µM
[12] = second compound 0.0316 µM, first compound 10 µM
[13] = second compound 0.1 µM, first compound 0.0316 µM
[14] = second compound 0.1 µM, first compound 0.1 µM
[15] = second compound 0.1 µM, first compound 0.316 µM
[16] = second compound 0.1 µM, first compound 1 µM
[17] = second compound 0.1 µM, first compound 3.16 µM
[18] = second compound 0.1 µM, first compound 10 µM
[19] = second compound 0.316 µM, first compound 0.0316 µM
[20] = second compound 0.316 µM, first compound 0.1 µM
[21] = second compound 0.316 µM, first compound 0.316 µM
[22] = second compound 0.316 µM, first compound 1 µM
[23] = second compound 0.316 µM, first compound 3.16 µM
[24] = second compound 0.316 µM, first compound 10 µM
[25] = second compound 1 µM, first compound 0.0316 µM
[26] = second compound 1 µM, first compound 0.1 µM
[27] = second compound 1 µM, first compound 0.316 µM
[28] = second compound 1 µM, first compound 1 µM
[29] = second compound 1 µM, first compound 3.16 µM
[30] = second compound 1 µM, first compound 10 µM
[31] = second compound 3.16 µM, first compound 0.0316 µM
[32] = second compound 3.16 µM, first compound 0.1 µM
[33] = second compound 3.16 µM, first compound 0.316 µM
[34] = second compound 3.16 µM, first compound 1 µM
[35] = second compound 3.16 µM, first compound 3.16 µM
[36] = second compound 3.16 µM, first compound 10 µM
[37] = second compound 10 µM, first compound 0.0316 µM
[38] = second compound 10 µM, first compound 0.1 µM
[39] = second compound 10 µM, first compound 0.316 µM
[40] = second compound 10 µM, first compound 1 µM
[41] = second compound 10 µM, first compound 3.16 µM
[42] = second compound 10 µM, first compound 10 µM
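Also: spheroids exposed to compound for 7 days before readout.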
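For viability, T/C in this document: 100% = DMSO vehicle control wells.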

Cc1nc(N2CCC3(CC2)COC(C)C3N)c(CO)nc1Sc1ccnc(N)c1Cl (stereo not given) + C#Cc1c(F)ccc2cc(O)cc(-c3ncc4c(N5CC6CCC(C5)N6)nc(OCC56CCCN5CC(F)C6)nc4c3F)c12
IC50 [1]: 0.608 µM
IC50 [2]: 0.336 µM
IC50 [3]: 0.184 µM
IC50 [4]: 0.0612 µM
IC50 [5]: < 0.0316 µM
IC50 [6]: < 0.0316 µM
viability, T/C [7]: 69.6%
viability, T/C [8]: 81%
viability, T/C [9]: 62.2%
viability, T/C [10]: 40.9%
viability, T/C [11]: 37.8%
viability, T/C [12]: 43.5%
viability, T/C [13]: 80.3%
viability, T/C [14]: 65.8%
viability, T/C [15]: 51.1%
viability, T/C [16]: 43%
viability, T/C [17]: 34.5%
viability, T/C [18]: 43%
viability, T/C [19]: 69.9%
viability, T/C [20]: 54.3%
viability, T/C [21]: 47.1%
viability, T/C [22]: 38.9%
viability, T/C [23]: 37%
viability, T/C [24]: 36.5%
viability, T/C [25]: 58.1%
viability, T/C [26]: 45.8%
viability, T/C [27]: 36.6%
viability, T/C [28]: 34.6%
viability, T/C [29]: 31.2%
viability, T/C [30]: 41.1%
viability, T/C [31]: 48.4%
viability, T/C [32]: 49.9%
viability, T/C [33]: 40.9%
viability, T/C [34]: 35.1%
viability, T/C [35]: 42.8%
viability, T/C [36]: 44.5%
viability, T/C [37]: 50%
viability, T/C [38]: 46.6%
viability, T/C [39]: 39.4%
viability, T/C [40]: 42.9%
viability, T/C [41]: 41.4%
viability, T/C [42]: 38.4%

O=C(c1ccc(F)c(F)c1Nc1ccc(I)cc1F)N1CC(O)([C@@H]2CCCCN2)C1
viability, T/C (compound 0.1 µM): 64.1% [middle of 4 runs]
viability, T/C (compound 0.316 µM): 41.3% [middle of 4 runs]

CC1(O)CCCC1n1c(=O)c(C(F)F)cc2cnc(NC3CCN(S(C)(=O)=O)CC3)nc21 (stereo not given) + C#Cc1c(F)ccc2cc(O)cc(-c3ncc4c(N5CC6CCC(C5)N6)nc(OCC56CCCN5CC(F)C6)nc4c3F)c12
IC50 [1]: > 10 µM
IC50 [2]: 8.85 µM
IC50 [3]: 6.91 µM
IC50 [4]: 4.97 µM
IC50 [5]: 3.87 µM
IC50 [6]: 4.08 µM
viability, T/C [7]: 90.6%
viability, T/C [8]: 113%
viability, T/C [9]: 94.6%
viability, T/C [10]: 81.5%
viability, T/C [11]: 108%
viability, T/C [12]: 51.5%
viability, T/C [13]: 80.4%
viability, T/C [14]: 83.9%
viability, T/C [15]: 78.7%
viability, T/C [16]: 88%
viability, T/C [17]: 97.6%
viability, T/C [18]: 45.7%
viability, T/C [19]: 69.3%
viability, T/C [20]: 75.5%
viability, T/C [21]: 60.7%
viability, T/C [22]: 69.8%
viability, T/C [23]: 94.6%
viability, T/C [24]: 38.9%
viability, T/C [25]: 66.3%
viability, T/C [26]: 63.2%
viability, T/C [27]: 65.4%
viability, T/C [28]: 56.6%
viability, T/C [29]: 70.5%
viability, T/C [30]: 27.5%
viability, T/C [31]: 51%
viability, T/C [32]: 54.6%
viability, T/C [33]: 48%
viability, T/C [34]: 49.1%
viability, T/C [35]: 69%
viability, T/C [36]: 29.7%
viability, T/C [37]: 52.3%
viability, T/C [38]: 57.2%
viability, T/C [39]: 61%
viability, T/C [40]: 56%
viability, T/C [41]: 66.8%
viability, T/C [42]: 19.5%

Cc1nc(N2CCC3(CC2)COC(C)C3N)c(CO)nc1Sc1ccnc(N)c1Cl (stereo not given)
viability, T/C (compound 0.0316 µM): 119% and 98.2% and 102% (2×)
viability, T/C (compound 0.316 µM): 94.2% [middle of 4 runs]
viability, T/C (compound 1 µM): 85.4% [middle of 4 runs]
IC50 (curve of compound): > 10 µM
